The source of these data is PubChem BioAssay AID1996.

Values after ≈ are worked out from the molar mass of the structure shown.

As usually defined, the kinetic solubility is solubility judged after dilution from a stock solution rather than from solid.

The conditions of the data set: buffer; pH 7.4; 200.0 µM.
`COc1cccc(N2C(=O)CC(N3CCc4ccccc4C3)C2=O)c1` (stereo not drawn) yielded a solubility (kinetic) of 50.4 µg/mL (≈ 150 µM). `O=c1cc(O)nc[nH]1`: the solubility (kinetic) was over 16.8 µg/mL.

Regarding `O=C(OCc1cc2ccccc2[nH]c1=O)c1cccc([N+](=O)[O-])c1`, the kinetic solubility was 0.8 µg/mL (≈ 2.47 µM). Consider `O=C(NCCCc1ccccc1)C(=O)c1c[nH]c2ccccc12`, for which the solubility (kinetic) came to 1.2 µg/mL (≈ 3.92 µM). For `Cc1onc(NC(=O)NC(=O)c2c(F)cccc2Cl)c1Br` the value was 8.1 µg/mL (≈ 21.5 µM); for `O=C(/C=C/c1ccc([N+](=O)[O-])cc1)OCc1cnc(-c2ccccc2)o1`, 6.8 µg/mL (≈ 19.4 µM); for `COc1cc(OC)cc(C(=O)N[C@H](C(=O)NC2CCCc3ccccc32)C(C)C)c1` (stereo partly drawn), 1.9 µg/mL (≈ 4.63 µM). For `CSc1ncccc1C(=O)OCC(=O)NC(C)(C)C` the value was over 42.4 µg/mL; for `Cc1cc(OCC(O)CN(C)C(=O)C(C)Oc2ccccc2)ccc1Cl` (stereo not drawn), 45.6 µg/mL (≈ 121 µM); for `Cc1ccc(C2=NCC(=O)Nc3ccc(Br)cc32)cc1`, 42.1 µg/mL (≈ 128 µM).

On to `Cc1ccc(S(=O)(=O)NCCC(=O)NNc2c(F)c(F)cc(F)c2F)cc1`, for which the kinetic solubility was over 60.8 µg/mL. For `O=C(COc1ccc(Cl)cc1)NCc1ccccc1` the value was 25.6 µg/mL (≈ 92.8 µM); for `CC(C)(C)NC(=S)NCC1CC1`, over 27.9 µg/mL. Compound `COc1ccc(C2C(C)C3(O)CC(C#N)(C(=O)N3)C2(C#N)C#N)cc1` (stereo not drawn) displayed a solubility (kinetic) of over 50.5 µg/mL. The compound `O=C(CCCc1nc(-c2ccccc2)no1)NC1CCCCC1` showed a kinetic solubility of 13.7 µg/mL (≈ 43.7 µM).

In the case of `Cc1csc(NC(=O)c2ccc(COc3ccccc3)o2)n1`, the solubility (kinetic) is 3.3 µg/mL (≈ 10.5 µM). Compared with the last compound, the solubility kinetic is about 4.2-fold lower. In turn, `C[Si](C)(C)n1ccnc1` registered a kinetic solubility of 14.6 µg/mL (≈ 104 µM). Against the preceding compound, the solubility kinetic is about 4.4-fold higher. `COc1cc(NC(=O)c2ccc(S(=O)(=O)N(C)c3ccccc3)cc2)cc(OC)c1` displayed a kinetic solubility of 5 µg/mL (≈ 11.7 µM). Compared with the last compound, the solubility kinetic is about 2.9-fold lower. For `Clc1ccc(Cl)c(OCCN2CCCC2)c1` the value was 25.4 µg/mL (≈ 97.6 µM).

`COC(=O)c1sccc1-c1ccc(/C=N/OC(=O)c2cccs2)o1` had a kinetic solubility of under 0.8 µg/mL. Regarding `Cc1cnc(NS(=O)(=O)c2ccccc2)c(Br)c1`, the kinetic solubility is over 49.1 µg/mL. `O=C(COc1ccc(F)cc1F)Nc1cccnc1` displayed a kinetic solubility of 36.2 µg/mL (≈ 137 µM). The compound `CN(CC1COc2ccccc2O1)C(=O)Cn1cc(C(F)(F)F)ccc1=O` (stereo not drawn) displayed a kinetic solubility of over 57.4 µg/mL. On to `CCc1ccccc1NC(=O)N1C[C@H]2C[C@@H](C1)c1cccc(=O)n1C2`, for which the kinetic solubility was over 50.6 µg/mL. On to `Cc1ccccc1NC(=O)C1CCN(C(=O)NC2CCCCC2)CC1`, for which the solubility (kinetic) was over 51.5 µg/mL. Compound `CCOc1ccc(C(=O)N2CCN(c3ccccn3)CC2)cc1OCC` gave a solubility (kinetic) of over 53.3 µg/mL.

With `O=C(NC1CCCCC1)c1cc(F)cc2c1OCOC2`, the solubility (kinetic) was 28.9 µg/mL (≈ 103 µM). For `C=CCn1c(C)nc2c(sc3nc4c(cc32)COC(C)(C)C4)c1=O` the value was over 51.2 µg/mL. For `O=C(Cc1c(F)cccc1Cl)N(Cc1ccccc1)c1ccccn1` the value was 37.3 µg/mL (≈ 105 µM); for `Clc1cccc(CN2CCc3c([nH]c4ccccc34)C2)c1`, 8.2 µg/mL (≈ 27.6 µM). The compound `CCC(C)c1ccccc1NC(=O)CN(CC)CC(=O)Nc1ccc2c(c1)OCCO2` (stereo not drawn) had a kinetic solubility of 38.3 µg/mL (≈ 90 µM).

In turn, `COc1ccc([N+](=O)[O-])cc1C(=O)C(=O)c1ccccc1` returned a solubility (kinetic) of under 0.6 µg/mL.

In turn, `COc1cc(C(CN)CC(=O)O)ccc1O.Cl` (stereo not drawn) displayed a kinetic solubility of over 39.3 µg/mL. As to `CC1=CCC(C(=O)O)C(C(=O)NC2CCCCC2)C1` (stereo not drawn), the kinetic solubility is over 39.8 µg/mL.

Regarding `O=[N+]([O-])c1ccc(N2CCN(Cc3cccc([N+](=O)[O-])c3)CC2)cc1`, the kinetic solubility was 7.3 µg/mL (≈ 21.3 µM).

Compound `Cc1ccc(NC(=O)CN(C)C(=O)Nc2ccc(C)cc2)cc1` returned a solubility (kinetic) of 4.9 µg/mL (≈ 15.7 µM). For `N[C@@H](Cc1cc(Br)c(O)c(Br)c1)C(=O)O` the value was over 50.8 µg/mL. The same measure for `Cn1ncc(Br)c1NC(=O)c1ccco1`: over 40.5 µg/mL.

Compound `Cc1ccc(S(=O)(=O)NCCC(=O)NC2CC2)cc1` had a kinetic solubility of over 42.4 µg/mL. Turning to `Cc1cc(C)c(NC(=O)COC(=O)c2ccncc2)c(C)c1`, the solubility (kinetic) is 35.6 µg/mL (≈ 119 µM).

In the case of `Cc1ccc2c(C(=O)CN3CCN(C(=O)c4ccco4)CC3)c(C)[nH]c2c1`, the kinetic solubility stood at 14.6 µg/mL (≈ 40 µM).

As to `CSCCC(=O)N1CCCC(CO)(CCCc2ccccc2)C1` (stereo not drawn), the kinetic solubility is 31.7 µg/mL (≈ 94.5 µM). This solubility kinetic is about 2.2-fold higher than that of the compound before. The compound `CCC(=O)Nc1ccc(OCc2nc3ccccc3s2)cc1` came in with a solubility (kinetic) of 2.3 µg/mL (≈ 7.36 µM). Against the preceding compound, the solubility kinetic is about 14-fold lower. The same measure for `CCOc1ccccc1NC(=O)Cc1coc2ccc(C)cc12`: 7.3 µg/mL (≈ 23.6 µM). For `Cc1cc(Br)ccc1N=C1C(=O)Nc2ccccc21` the value was 8 µg/mL (≈ 25.4 µM); for `Cc1cc(C)c(S(=O)(=O)NCc2cccnc2)cc1C`, over 43.6 µg/mL; for `O=C(CN1C(=O)NC2(CCCCC2)C1=O)Nc1ccc2c(c1)CCC2`, 5.1 µg/mL (≈ 14.9 µM). In turn, `O=C(NCc1ccc(F)cc1)c1ccncc1` had a kinetic solubility of 34.2 µg/mL (≈ 149 µM).

As to `Cc1cc(C(=O)Nc2ccc(N3CCOCC3)c(Cl)c2)c(C)o1`, the solubility (kinetic) was found to be 45.6 µg/mL (≈ 136 µM). This solubility kinetic and that of the compound before are within 1.5-fold of each other.

`COc1ccccc1NS(=O)(=O)c1ccc(C)c(C(=O)N2CCN(c3ccc(O)cc3)CC2)c1.Cl` showed a kinetic solubility of over 77.7 µg/mL. For `O=C1OCCC1Sc1nnc(-c2ccc3c(c2)OCO3)o1` (stereo not drawn) the value was over 45.9 µg/mL; for `Cc1[nH]ccc(=O)c1OCC(=O)O`, over 27.5 µg/mL. For `COCCCNc1oc(/C=C/c2ccccc2)nc1C#N` the value was 3.7 µg/mL (≈ 13.1 µM); for `COc1ccc(Cl)cc1N(CC(=O)N1CCCC1)S(C)(=O)=O`, 51.5 µg/mL (≈ 148 µM). As for `CCc1ccc(OC(=O)CN2C(=O)c3ccccc3C2=O)cc1`, the solubility (kinetic) stood at 39.3 µg/mL (≈ 127 µM). This solubility kinetic and that of the compound before are within 1.5-fold of each other.

The compound `CCc1noc(C)c1C(=O)OC(C)C(=O)Nc1ccc2c(c1)OCO2` (stereo not drawn) returned a kinetic solubility of 14.4 µg/mL (≈ 41.6 µM). `Cc1cccc(C)c1NC(=O)CNC(=O)c1ccc2c(c1)NC(=O)CS2` showed a solubility (kinetic) of 41 µg/mL (≈ 111 µM). Consider `O=C(O)c1ccc(NC2CC(=O)N(Cc3ccccc3)C2=O)cc1` (stereo not drawn), for which the kinetic solubility is over 48.7 µg/mL.

As to `S=C(NCC1CCCO1)NC1CCCCC1` (stereo not drawn), the kinetic solubility was over 36.4 µg/mL. Take `CCN(CC)C(=N)/C(C#N)=N/Nc1ccccc1`: the kinetic solubility was over 36.5 µg/mL. `O=C1NC(Cc2ccccc2)C(=O)Nc2ccc(Br)cc21` (stereo not drawn): the kinetic solubility was 15.7 µg/mL (≈ 45.5 µM). For `O=C(O)C1Nc2ccc(Br)cc2C2C=CCC12` (stereo not drawn) the value was 43.6 µg/mL (≈ 148 µM); for `Cc1c(C)c(C)c2[nH]c(-c3ccc4c(c3)OCO4)nc2c1C`, under 0.3 µg/mL; for `Cc1cccc(C)c1NC(=O)Cn1c(=O)c(N2CCCCC2)c(N)n(C)c1=O`, over 57.8 µg/mL. For `CC(=O)N1CC(=O)N(c2ccccc2)C1=O`, the solubility (kinetic) was over 32.7 µg/mL. For `CCC(C)n1c(O)c(C=NCCc2ccccc2)c(=O)[nH]c1=S` (stereo not drawn) the value was 5.1 µg/mL (≈ 15.4 µM); for `CC(C)CNC(=O)C(=O)NCCCN1CCOCC1`, over 40.7 µg/mL. `CC(C(=O)c1ccccc1)[n+]1cccc(C(N)=O)c1.[Br-]` (stereo not drawn) returned a kinetic solubility of over 50.3 µg/mL. `Cc1ccc(S(=O)(=O)CCc2nc3ccccc3[nH]2)cc1C` gave a solubility (kinetic) of over 47.2 µg/mL.

On to `Cc1nc([N+](=O)[O-])cn1Cc1cccc2ccccc12`, for which the kinetic solubility was 2.5 µg/mL (≈ 9.35 µM). As for `O=C(COC(=O)c1nc(Cl)ccc1Cl)c1ccc[nH]1`, the kinetic solubility is 31.3 µg/mL (≈ 105 µM).

The compound `COc1ccc(-c2csc(NC(=O)c3ccc(C(C)(C)C)cc3)c2C(=O)O)cc1` gave a solubility (kinetic) of over 61.4 µg/mL.

The compound `NC(=O)C1CCN(C(=O)/C=C/c2cccc(Br)c2)CC1` yielded a solubility (kinetic) of 46.9 µg/mL (≈ 139 µM). The compound `CN(C(=O)COC(=O)Cn1cnc2ccccc21)C1CCCCC1` showed a kinetic solubility of 45 µg/mL (≈ 137 µM). The compound `Cc1cccc(NC(=S)N2CCCN(c3ncccc3[N+](=O)[O-])CC2)c1` yielded a solubility (kinetic) of 39.4 µg/mL (≈ 106 µM). This solubility kinetic and that of the compound before are within 1.5-fold of each other. Take `CC1CCCN(C2(O)C(=O)Nc3ccc([N+](=O)[O-])cc32)C1` (stereo not drawn): the kinetic solubility turned out to be 16.6 µg/mL (≈ 57 µM). With `Cc1cccc(N2CCN(C(=O)c3cccc(S(=O)(=O)N4CCCCC4)c3)CC2)c1C`, the kinetic solubility stood at 2.9 µg/mL (≈ 6.57 µM). `CC1CN(CC(=O)Nc2ccc([N+](=O)[O-])cc2Br)CC(C)O1` (stereo not drawn) came in with a solubility (kinetic) of 6.4 µg/mL (≈ 17.2 µM).

The compound `O=[N+]([O-])c1ccc(-c2csc(N3CCCCCC3)n2)cc1` registered a kinetic solubility of 0.6 µg/mL (≈ 1.98 µM). `CCOc1ncccc1C(=O)Nc1c(C)n(C)n(-c2ccccc2)c1=O`: the kinetic solubility is over 52.9 µg/mL. In the case of `CN(Cc1ccccc1)C(=O)COc1ccc2ccccc2c1`, the solubility (kinetic) is under 0.7 µg/mL.

Compound `Cc1noc(N)c1C1(O)C(=O)Nc2c(Cl)cc(Cl)cc21` (stereo not drawn) registered a kinetic solubility of over 47.1 µg/mL.

`CCOc1ccc(N(C)S(=O)(=O)c2cnc[nH]2)cc1` returned a kinetic solubility of over 42.2 µg/mL. The same measure for `COc1ccc(CCNC(=O)Nc2cccc([N+](=O)[O-])c2)cc1`: 2.3 µg/mL (≈ 7.29 µM); for `O=C(Nc1nc(-c2ccc(F)cc2)cs1)c1cccnc1`: 0.6 µg/mL (≈ 2 µM); for `COc1ccc(/C=C/C(=O)N[C@H](C(=O)O)C(C)C)cc1`: over 41.6 µg/mL. For `Cc1ccsc1C(=O)NCc1ccccc1Cl`, the kinetic solubility was over 39.9 µg/mL. In turn, `NC(=O)c1cc(-c2csc(NCCc3ccccc3)n2)ccc1O` returned a kinetic solubility of 8 µg/mL (≈ 23.6 µM). Regarding `Br.Nc1nc2c(s1)CCc1ccccc1-2`, the kinetic solubility was found to be 40.3 µg/mL. `CC1CCCCC1NC(=O)C(C)N1C(=O)c2ccccc2C1=O` (stereo not drawn) yielded a solubility (kinetic) of over 47.2 µg/mL. `CC(=O)c1ccc(NC(=O)CSc2nccn2C)cc1` came in with a solubility (kinetic) of over 43.4 µg/mL. `COc1ccc(C(=O)NCC(=O)c2ccccc2)cc1` gave a kinetic solubility of over 40.4 µg/mL. Turning to `COc1cc(NC(=S)NCCO)c(OC)cc1Cl`, the solubility (kinetic) was over 43.6 µg/mL.

`O=C(O)C1C2C=CC(C2)C1C(=O)Nc1ccc(Cl)c(Cl)c1` (stereo not drawn) showed a solubility (kinetic) of 13.4 µg/mL (≈ 41.1 µM). For `C=CCNC(=S)N1CCOCC1` the value was over 27.9 µg/mL. For `O=C(CN1C(=O)c2ccccc2C1=O)Nc1cc([N+](=O)[O-])ccc1O`, the solubility (kinetic) is over 51.2 µg/mL. For `O=C1CCCc2ccccc2N1Cc1ccccc1`, the solubility (kinetic) came to 37.5 µg/mL (≈ 149 µM). `COc1ccc(Cl)cc1C(=O)Nc1cccnc1` returned a solubility (kinetic) of 22.1 µg/mL (≈ 84.1 µM). Take `COc1cccc(CN(C)C(=O)CCN=C2NS(=O)(=O)c3ccccc32)c1`: the solubility (kinetic) is over 58.1 µg/mL.

`Cc1ccc(C)c(OCC(=O)Nc2ccc(N3CCOCC3)cc2)c1`: the kinetic solubility came to 6.1 µg/mL (≈ 17.9 µM). The compound `Cc1ccc(NC(=O)CNC(=O)c2cccc(C)c2)nc1` yielded a solubility (kinetic) of over 42.5 µg/mL.

For `Cn1c(=O)c2c(ncn2CC(O)CNc2ccc(F)cc2)n(C)c1=O` (stereo not drawn), the kinetic solubility is over 52.1 µg/mL. On to `Cc1csc(SCC(=O)NC(C)c2ccccc2)n1` (stereo not drawn), for which the kinetic solubility was over 43.9 µg/mL.
